Reference: article PMC7994622, “Eryptosis and Malaria: New Experimental Guidelines and Re-Evaluation of the Antimalarial Potential of Eryptosis Inducers” (Frontiers in Cellular and Infection Microbiology, 2021)
“Also recorded” adds a separate entry of the source. Structures can show the parent of a compound that is named as a salt. Where two headings read alike, the source gives them in different places.

Legend:
naïve erythrocytes [1] = experiment: Eryptosis assay by flow cytometry (PS exposure, cell size, intracellular calcium) on naïve erythrocytes; assay type: cell-based, human; settings: for Eryptosis hallmarks, naïve erythrocytes: 4 h in iRPMI, 1, 5, 10 μM (ionomycin 1 μM), PS exposure, cell size, intracellular calcium, hemolysis, significant changes
Description: (§1) Use of human erythrocytes was approved by the La Trobe University Research Ethics Committee (ethics number HEC17‐013) and an Australian Red Cross Blood Service Agreement (Deed 19-05VIC-01). Red blood cell populations are intrinsically heterogeneous and variable between donors, therefore each experiment presented in this study was conducted a minimum of three independent times, each with a different batch of blood. Human red cells were processed as soon as possible upon collection to minimize erythrocyte aging. Naïve (non-infected) erythrocytes and Plasmodium falciparum 3D7-infected erythrocytes were cultured at 37°C, in low oxygen conditions (1% O2, 5% CO2, 94% N2), at 4% or 0.4% hematocrit, in incomplete RPMI media (iRPMI: RPMI 1640 HEPES, 50 mg/L hypoxanthine, 10 mg/L gentamicin, pH 6.74), complete RPMI media (cRPMI: incomplete RPMI supplemented with 2.25 g/L sodium bicarbonate and 5 g/L AlbuMAX II), or Ringer solution (1mM CaCl2, 5mM glucose, 32 mM HEPES pH 7.4, 5 mM KCl, 1mM MgSO4, 125mM NaCl). P. falciparum standard in vitro culture conditions were conducted as previously described ([Trager and Jensen, 1976]).
(§2) Drug assays measuring eryptosis were carried out in 100 μl or 500 μl of culture when using 4% or 0.4% hematocrit conditions, respectively. DMSO, the vehicle, was used for the no-drug conditions. Cells were incubated at 37°C, in low oxygen conditions for 1 h to 48 h depending on the assay. Each experiment was performed in triplicate unless otherwise indicated and cells were analyzed by flow cytometry. […] Cells were washed in staining buffer (5 mM CaCl2, 5 mM glucose, 32 mM HEPES pH7.4, 5 mM KCl, 1 mM MgSO4, 125 mM NaCl), resuspended in 0.3 μM of intracellular calcium dye x-Rhod-1 AM (Invitrogen) and incubated in the dark at 37°C for 30 min. Subsequently, cells were washed in staining buffer and incubated with Annexin V-PE (1:20 dilution in staining buffer; BD Bioscience) at 37°C for 20 min in the dark for the staining of surface-exposed phosphatidylserine. Cells were resuspended in 200 μl staining buffer and analyzed within the hour using a CytoFLEX S flow cytometer (Beckman Coulter). 100,000 total events were recorded for each condition at a flow rate of 10 μl/min. Data were analyzed using FlowJo V10. For PS exposure measure, gating was set using data obtained with naïve erythrocytes DMSO control. Infected cells were gated using Hoechst fluorescence. The percentage of Annexin V-PE positive cells, the mean forward scatter height (FSC-H) and mean x-Rhod-1 fluorescence area (PE-A) were acquired for naïve and infected-erythrocytes.

[2] = tested on: P. falciparum-infected erythrocytes; experiment: Eryptosis assay by flow cytometry on P. falciparum-infected erythrocytes; assay type: cell-based, human; settings: 4 h in iRPMI, 4% hematocrit, 1, 5, 10 μM (ionomycin 1 μM), PS exposure, cell size, intracellular calcium, hemolysis, significant changes
Description: as §1, §2

naïve erythrocytes [3] = experiment: Hemolysis assay (absorbance 405 nm) on naïve erythrocytes; assay type: cell-based, human; settings: 48 h
Excerpt: Absorbance of culture media alone was considered as baseline.

P. falciparum [4] = experiment: Parasite growth inhibition assay (SYBR Gold, 72 h); assay type: cell-based, Plasmodium falciparum 3D7
Description: as §1
Compound-induced parasite growth inhibition was measured as previously described ([Morahan et al., 2020]). Briefly, an asynchronous parasite culture at 0.25% parasitemia and 2% hematocrit was incubated in a 96-well plate with a two-fold serial dilution of compound over 72 h in standard culture conditions (cRPMI, 37°C, low oxygen). Compounds (at 10 mM in DMSO) were added to the first well of the dilution series to produce a 50 µM drug concentration (and 0.5% (v/v) DMSO) and diluted two-fold until a concentration of 0.19 nM compound was reached. Each condition was conducted in triplicates, subject to a freeze/thaw cycle and incubated with the DNA intercalant SYBR Gold following manufacturer instructions (SYBR™ Gold Nucleic Acid Stain, Invitrogen). The average fluorescence between triplicates was measured at 495 nm using a CLARIOstar® microplate reader and analyzed as a proxy of parasite replication.

P. falciparum [5] = settings: cited from earlier work
erythrocytes = settings: cited from earlier work
P. berghei = settings: cited from earlier work
[6] = Plasmodium falciparum, asynchronous culture, cRPMI, up to 50 µM, N=5, read-out: P. falciparum IC50
[7] = asynchronous culture, cRPMI, up to 50 µM, N=5, read-out: P. falciparum IC50
[8] = 1 μM, 1 h, iRPMI, 4% hematocrit

For `CNC(=O)c1cc(Oc2ccc(NC(=O)Nc3ccc(Cl)c(C(F)(F)F)c3)cc2)ccn1` [BAY 43-9006, Sorafenib], the “percentage of PS-exposing cells” value (naïve erythrocytes [1]; 10 µM, 48 h, Ringer solution, 0.4% hematocrit) was 41%, the “percentage of PS-exposing cells” value (naïve erythrocytes [1]; 10 µM, 48 h, Ringer solution, 4% hematocrit) was 10% and the PS exposure (naïve erythrocytes [1]; 10 µM, 48 h, cRPMI, 4% hematocrit) was “no significant increase”. For the same compound, the “Eryptosis hallmarks, naïve erythrocytes” value (naïve erythrocytes [1]; 4% hematocrit) was “Ns”, the “Eryptosis hallmarks, P. falciparum-infected erythrocytes” value [2] was “Ns” and the hemolysis (naïve erythrocytes [3]; 10 µM, Ringer, 0.4% hematocrit) was “significantly induced hemolysis”. For the same compound, the hemolysis (naïve erythrocytes [3]; 10 µM, Ringer, 4% hematocrit) was “not”, the hemolysis (naïve erythrocytes [3]; 10 µM, cRPMI, 4% hematocrit) was “not” and the IC50 (P. falciparum [4]; [6]) was less than 10 µM. The IC50 (P. falciparum [4]; [7]) was 7.48 µM.
For `O=c1cc(-c2ccc(O)cc2)oc2cc(O)cc(O)c12` [Apigenin, apigenin], the IC50 (P. falciparum [5]; in vitro, ref Fallatah and Georges, 2017, read-out: P. falciparum IC50, previously published) is listed as 36 µM, the “Eryptosis hallmarks, naïve erythrocytes” value (naïve erythrocytes [1]; 4% hematocrit) is listed as “Ns” and the “Published eryptosis induction concentration” value (erythrocytes; naïve erythrocytes, ref Zbidah et al., 2012) is listed as 15 µM, ([Zbidah et al., 2012]). For the same compound, the “Published eryptosis induction concentration” value (erythrocytes; naïve erythrocytes, ref Zbidah et al., 2012, listed as apigenin) was 15 µM, the “Eryptosis hallmarks, P. falciparum-infected erythrocytes” value [2] was “Ns” and the IC50 (P. falciparum [4]; [7]) was 65.8 µM. The “Effect on P. berghei: parasitemia” value (P. berghei; Pb, ref Amiri et al., 2018) was “Decreased parasitemia (Pb) ([Amiri et al., 2018])”.
In the case of `CCCCc1oc2ccccc2c1C(=O)c1cc(I)c(OCCN(CC)CC)c(I)c1` [Amiodarone, amiodarone HCl], the “Effect on P. falciparum: parasitemia” value (P. falciparum [5]; Pf in vitro, ref Bobbala et al., 2010b) is listed as “Reduced parasitemia”, the “Eryptosis hallmarks, naïve erythrocytes” value (naïve erythrocytes [1]; 4% hematocrit) is listed as “↑ Calcium (5 μM)” and the “Published eryptosis induction concentration” value (erythrocytes; naïve erythrocytes, ref Nicolay et al., 2007) is listed as 5 µM, ([Nicolay et al., 2007]). The “Published eryptosis induction concentration” value (erythrocytes; naïve erythrocytes, ref Nicolay et al., 2007, listed as amiodarone) was 5 µM, the “Eryptosis hallmarks, P. falciparum-infected erythrocytes” value [2] was “Ns” and the “Effect on P. berghei: parasitemia” value (P. berghei; Pb in vivo, ref Bobbala et al., 2010b) was “Reduced parasitemia”. For the same compound, the “Effect on P. berghei: mice survival” value (P. berghei; Pb, ref Bobbala et al., 2010b) was “increased mice survival”.
With `C[C@H](CCC(=O)O)C[C@H](C)C[C@H](C)C(=O)/C=C(\O)[C@H](C)C[C@H](C)C/C=C/[C@@H](C)[C@@H](O)[C@@H](C)[C@@H](O)C[C@@H]1CC[C@@](C)([C@H]2CC[C@@](C)([C@@H](C)O)O2)O1` [Ionomycin, ionomycin] the “increase in PS exposure compared to the no-drug condition” value (naïve erythrocytes [1]; 1 μM, 1 h, Ringer solution, 4% hematocrit) was 62 fold, the PS exposure (naïve erythrocytes [1]; 1 μM, 1 h, Ringer, 4% hematocrit) was 6.6% and the PS exposure (naïve erythrocytes [1]; [8]) was 4.4%. The “increase in PS exposure compared to the no-drug condition” value (naïve erythrocytes [1]; [8]) was 45 fold, the PS exposure (naïve erythrocytes [1]; 1 μM, 24 h, Ringer+Albumax, 4% hematocrit) was 13.2% and the PS exposure (naïve erythrocytes [1]; 1 μM, 48 h, Ringer+Albumax, 4% hematocrit) was 22%. The PS exposure (naïve erythrocytes [1]; 1 μM, 48 h, Ringer, 4% hematocrit) was 24%, the PS exposure (naïve erythrocytes [1]; 1 μM, 48 h, iRPMI+Albumax, 4% hematocrit) was 15% and the PS exposure (naïve erythrocytes [1]; 1 μM, 48 h, iRPMI+Albumax, 4% hematocrit, listed as ionomycin) was 14.6%. The PS exposure (naïve erythrocytes [1]; 1 μM, 48 h, iRPMI, 4% hematocrit) was 23%, the “Eryptosis hallmarks, naïve erythrocytes” value (naïve erythrocytes [1]; 4% hematocrit) was “↑ PS exposure ↓ Cell Size (1 μM)” and the “Eryptosis hallmarks, naïve erythrocytes” value (naïve erythrocytes [1]; 4% hematocrit, listed as ionomycin) was “significant increase of PS exposure and a decrease in cell size”. The “Eryptosis hallmarks, P. falciparum-infected erythrocytes” value [2] was “↑ PS exposure ↓ Cell Size (1 μM)”, the “Eryptosis hallmarks, P. falciparum-infected erythrocytes” value ([2]; listed as ionomycin) was “significant increase of PS exposure and a decrease in cell size” and the hemolysis (naïve erythrocytes [3]; 1 μM, Ringer or iRPMI with addition of Albumax, 4% hematocrit) was “abolish ionomycin-induced hemolysis”. For the same compound, the “hemolysis (OD405)” value (naïve erythrocytes [3]; 1 μM, Ringer, 4% hematocrit) was 20.5 and the “hemolysis (OD405)” value (naïve erythrocytes [3]; 1 μM, iRPMI, 4% hematocrit) was 5.5.
In the case of `C[C@@H]1CC[C@H]2[C@@H](C)C(=O)O[C@@H]3O[C@@]4(C)CC[C@@H]1[C@]32OO4` [artemisinin], the IC50 (P. falciparum [4]; Plasmodium falciparum, asynchronous culture, cRPMI, read-out: P. falciparum IC50) is reported as 0.012 µM.
In the case of `Nc1ncnc2c1ncn2[C@@H]1O[C@H](CO)C[C@H]1O` [Cordycepin, cordycepin], the “Eryptosis hallmarks, naïve erythrocytes” value (naïve erythrocytes [1]; 4% hematocrit) is given as “Ns”, the “Published eryptosis induction concentration” value (erythrocytes; mouse erythrocytes, ref Lui et al., 2007) is given as 31 µM, ([Lui et al., 2007]) and the “Published eryptosis induction concentration” value (erythrocytes; mouse erythrocytes, ref Lui et al., 2007, listed as cordycepin) is given as 31 µM. For the same compound, the “Eryptosis hallmarks, P. falciparum-infected erythrocytes” value [2] was “Ns”, the IC50 (P. falciparum [4]; [6]) was 12 µM and the IC50 (P. falciparum [4]; asynchronous culture, cRPMI, up to 50 µM, N=5, listed as cordycepin, read-out: P. falciparum IC50) was greater than 10 µM. For the same compound, the IC50 (P. falciparum [4]; [7]) was 12.1 µM.
For `C=C1C(=O)[C@]23[C@H](O)[C@H]1CC[C@H]2[C@@]12CO[C@]3(O)[C@@H](O)[C@@H]1C(C)(C)CC[C@@H]2O` [Oridonin, oridonin], the “Eryptosis hallmarks, naïve erythrocytes” value (naïve erythrocytes [1]; 4% hematocrit) is listed as “Ns”, the “Eryptosis hallmarks, naïve erythrocytes” value (naïve erythrocytes [1]; 4% hematocrit, listed as oridonin) is listed as “did not induce statistically significant changes; also recorded: no significant increase” and the “Published eryptosis induction concentration” value (erythrocytes; naïve erythrocytes, ref Jilani et al., 2011) is listed as 25 µM, ([Jilani et al., 2011]). For the same compound, the “Published eryptosis induction concentration” value (erythrocytes; naïve erythrocytes, ref Jilani et al., 2011, listed as oridonin) was 25 µM, the “Eryptosis hallmarks, P. falciparum-infected erythrocytes” value [2] was “Ns” and the “Eryptosis hallmarks, P. falciparum-infected erythrocytes” value ([2]; listed as oridonin) was “did not induce statistically significant changes; also recorded: no significant increase”. For the same compound, the IC50 (P. falciparum [4]; [6]) was roughly 2 µM and the IC50 (P. falciparum [4]; [7]) was no more than 2 µM.
`CCN(CC)CCCC(C)Nc1ccnc2cc(Cl)ccc12` (stereo not drawn) [chloroquine] showed an IC50 (P. falciparum [4]; Plasmodium falciparum, read-out: P. falciparum IC50, asynchronous culture, cRPMI, 72 h) of 0.022 µM.
In the case of `CC(C)(C)CC(C)(C)c1ccc(OCCOCC[N+](C)(C)Cc2ccccc2)cc1` [Benzethonium, benzethonium chloride], the “Eryptosis hallmarks, naïve erythrocytes” value (naïve erythrocytes [1]; 4% hematocrit) is reported as “Ns” and the “Eryptosis hallmarks, P. falciparum-infected erythrocytes” value [2] is reported as “Ns *”.
